From paper PMC11017252, “Copper(II) Complexes with 2,2′:6′,2″-Terpyridine Derivatives Displaying Dimeric Dichloro−μ–Bridged Crystal Structure: Biological Activities from 2D and 3D Tumor Spheroids to In Vivo Models” (Journal of Medicinal Chemistry, 2024)

Legend:
[1] = tested on: CAM; set-up: method as in PMID 33823390; details: cited from earlier work
[2] = tested on: HCT116, A2780, A549, and MCF7 cell lines; set-up: method as in PMID 28702618; details: cited from earlier work
[3] = tested on: HCT116 (colorectal carcinoma cell line); experiment: MTS cell viability assay, 2D culture, HCT116; type: cell-based, human; details: 48 h of exposure
Experimental: (§1) The in vitro cytotoxic potential of Cu(II) complexes in tumor and healthy cells was assessed using the MTS assay, a colorimetric method that allows the quantification of viable cells in culture.[46]
Cell culture and maintenance
(§2) The cancer cell lines HCT116 (colorectal carcinoma) and A2780 (ovarian carcinoma) were obtained
(§3) from the American Type Culture Collection (ATCC®, Manassas, VA, USA), as well as the normal
human primary dermal fibroblasts.
(§4) Apart from the A2780 cell line, which was cultured in Roswell Park Memorial Institute (RPMI)
(§5) medium, all cells were cultured in Dulbecco’s modified Eagle medium (DMEM). Both media were
(§6) supplemented with 10% (v/v) fetal bovine serum (FBS) and 1% (v/v) of a Pen/Strep
(§7) (Penicillin/Streptomycin) solution. To maintain the resistant phenotype of the HCT116DoxR cell line,
(§8) the medium was additionally supplemented with 3.6 μM Dox4. All media and supplements were
(§9) purchased from Thermo Fischer Scientific (Waltham, MA, USA).
(§10) Cells were maintained in 25 cm2 T-flasks (T25) in a humidified atmosphere at 37 °C and 5% (v/v) CO
(§11) (SANYO CO2 Incubator, Electric Biomedical Co., Osaka, Japan).
(§12) The effect of Cu(II) complexes on cell viability was studied in HCT116, HCT116DoxR, and A2780
(§13) cancer cell lines and in normal human primary fibroblasts. Cells were seeded in a density of 0.75×105
(§14) cells/mL into 96-well plates and incubated in a humidified atmosphere at 37 °C and 5% (v/v) CO2 for
(§15) 24 h. After incubation, complexes were weighed, immediately solubilized in 100% (v/v) DMSO and
(§16) diluted for the final concentration with cell culture medium. The medium in each well was replaced by
(§17) a solution of fresh medium containing each Cu(II) complex (concentrations ranging from 0.01 μM to
(§18) as negative and positive controls, respectively.
(§19) Following a second incubation period of 48 h in the same conditions, the supernatant of each well was
(§20) replaced by a solution containing MTS reagent (3-(4,5-dimethylthiazol-2-yl)-5-(3-
(§21) carboxymethoxyphenyl)-2-(4-sulfophenyl)-2H-tetrazolium) provided by the CellTiter 96® AQueous
(§22) Non-Radioactive Cell Proliferation Assay Kit (Promega, Madison, WI, EUA) for a 30 minutes
(§23) incubation. The percentage of viable cells was indirectly determined by the spectrophotometric
(§24) quantification at 490 nm in a microplate reader, Tecan Infinite M200 (Tecan, Männedorf, Switzerland)
(§25) of formazan production, resultant from the reduction of the MTS reagent by mitochondrial
(§26) dehydrogenases. Since these enzymes are only active in viable cells, the absorbance value measured is
(§27) directly proportional to the percentage of viable cells in culture5.
(§28) By analysing the cell viability as a function of log10(concentration) using Prism 8 (GraphPad
(§29) in cell viability) of each complex in the respective cell line at 48 h. The selective index (SI) for each
(§30) complex was also determined by dividing the IC50 of human fibroblasts by the respective IC50 in each
(§31) cancer cell line (allowing us to understand how much active a complex is in tumor versus normal cell).

[4] = tested on: A2780 (ovarian carcinoma cell line); experiment: MTS cell viability assay, 2D culture, A2780; type: cell-based, human; details: 48 h of exposure
Experimental: as §1
Cell culture and maintenance
as §2, §3
human primary dermal fibroblasts.
as §4, §5, §6, §7, §8, §9, §10, §11, §12, §13, §14, §15, §16, §17, §18, §19, §20, §21, §22, §23, §24, §25, §26, §27, §28, §29, §30, §31

[5] = tested on: normal human primary dermal fibroblasts; experiment: MTS cell viability assay, normal fibroblasts; type: cell-based; details: 48 h of exposure
Experimental: as §1
Cell culture and maintenance
as §2, §3
human primary dermal fibroblasts.
as §4, §5, §6, §7, §8, §9, §10, §11, §12, §13, §14, §15, §16, §17, §19, §20, §22, §23, §24, §25

[6] = tested on: HCT116DoxR spheroids; experiment: MTS cell viability assay in 3D HCT116DoxR spheroids; type: cell-based, human; details: 6-day-old spheroids, 48 h of exposure
[7] = tested on: BAX and BCL-2; experiment: BAX and BCL-2 protein expression by Western Blot; type: cell-based, human; details: HCT116DoxR, 48 h, IC50; normalized to β-actin
[8] = tested on: pUC18 plasmid DNA; experiment: pDNA cleavage in vitro (agarose gel electrophoresis); type: biochemical, E. coli; details: for concentration at which the interaction with pDNA reaches saturation / pDNA cleavage mode: 100 ng pUC18, 24 h; for pDNA cleavage mode: 5–100 μM complex; for effect of NaN3 (singlet oxygen scavenger) on pDNA cleavage by the complex: 24 h, 50 μM complex + 50 μM NaN3
[9] = tested on: EB–ct-DNA adduct; experiment: Ethidium bromide displacement fluorescence assay; type: binding, calf; details: PBS; for apparent binding constant (Kapp): EB displacement, KEB = 1 × 10^7 M^–1; for Stern–Volmer quenching constant KSV: EB–ct-DNA, 0–40 μM complex
[10] = tested on: fibroblasts; experiment: Cell migration (wound healing) assay; type: cell-based, human; details: 24 h; complexes at IC50, Dox 0.4 μM; vs DMSO
Text: A wound healing assay was therefore carried out on fibroblasts to study the influence of the Cu(II) complexes on cell migration in vitro. Skin fibroblasts were the model chosen for this assay as they are essential for regenerating damage in this tissue.[85] […]
intrinsic binding constant Kb can be obtained from the ratio of the slope to the intercept of the linear fit of the plot [DNA]/[εa−εf] versus [DNA].
For emission quenching experiments, equimolar solution of ct-DNA and ethidium bromide (EB, Sigma Aldrich) was prepared and allowed to incubate for 2 h in the dark. The tested complexes were titrated into the formed EB–ct-DNA adduct and incubated for additional 30 min. The final concentration of the EB–ct-DNA adduct was 50 μM and the concentration of the complexes varied from 0 to 40 μM. The fluorescence spectra were recorded on FLS-980 spectrofluorometer (Edinburgh Instruments, Livingston, United Kingdom) with excitation wavelength 515 nm and emission wavelength of 620 nm. The apparent binding constant (Kapp) was calculated using the Equations : […]
where I0 and I are the fluorescence intensity in the absence and presence of the complexes; KSV is the Stern-Volmer quenching constant; [Q] is the concentration of the complexes; [Q1/2] is the concentration of the complex causing 50% reduction in the fluorescence intensity; K = 1×107 […]
conditions mentioned before until the presence of a confluent monolayer was detected. A scratch was made on the surface of each well using a sterile 200 μL micropipette tip and the cells were […]
Each plate was then incubated for 24 h in the same conditions mentioned before. […]
The width of each scratch in each image was measured via ImageJ software. […]
The ex-ovo CAM assay was performed to evaluate the copper(II) complexes’ effect on angiogenesis, as already described in literature11,12. […] Newly formed blood vessels were manually counted via ImageJ software. […]
All results were expressed as mean ± SEM of at least two independent biological assays, each obtained by technical duplicates, unless otherwise specified. […]

[11] = tested on: chicken embryos; experiment: Ex-ovo chick chorioallantoic membrane (CAM) assay; type: in vivo; details: IC50, vs DMSO control
[12] = Stability and solubility in biological medium (RPMI) by UV-vis; type: physicochemical; details: colorless RPMI, 50 μM, 37 °C
Experimental: The stability of complexes 2, 3, 5, and 7 was assessed by UV–vis spectroscopy at 0, 24, and 48 h of incubation at 37 °C.
In Figure S18, it is possible to observe the spectra of all Cu(II) complexes, where high-energy absorption bands correspond to π → π* and n → π* transitions with peaks in the 230–330 and 330–400 nm ranges, respectively, that are associated with the aromatic rings of terpyridines.[39],[49] Analyzing the spectra of complexes 2 and 3, it is possible to detect the existence of 3 bands (maximum ∼240, ∼ 290, and between 320 and 340 nm). […] Complex 7 only has 2 bands of maximum absorbance at 290 nm and between 320 and 340 nm.
Nevertheless, all Cu(II) complex solutions were freshly prepared and added immediately to cells.

[13] = tested on: HCT116DoxR cells; experiment: Cell cycle progression (PI, flow cytometry)
Text: Therefore, we have assessed the cytostatic potential of complexes 2, 3, 5, and 7, and their ability to interfere with the progression of the cell cycle using the fluorescent marker PI. Since this marker can intercalate with DNA, the measurement of the fluorescence emitted by flow cytometry makes it possible to assess the DNA content at each stage of the cell cycle (G0/G1, S, and G2/M).[67] To ensure that all the cells were in the same phase before their exposure to the complexes, a double block was carried out with thymidine, a DNA synthesis inhibitor.[67]
HCT116DoxR cell line was seeded in 6-well plates in a density of 1×10^5 cells/mL and incubated for
24 h. Afterwards, the culture medium was replaced by medium with IC50 concentrations of different
HCT116DoxR cell line was seeded in 6-well plates in a density of 1×10^5 cells/mL, incubated for 8 h in
a humidified atmosphere at 37 °C and 5% (v/v) CO2, and later synchronized in early S-phase with a 2
mM thymidine solution (Merck, Germany) for a 16 h period. Later, medium with thymidine was
replaced by fresh media and, after 8 h a second block with thymidine was performed in the same
concentrations of Cu(II) complexes. 0.1% (v/v) DMSO was used as the vehicle control while 5 μM
After treatment, cells were incubated for 9, 12,

[14] = tested on: HCT116DoxR (Dox-resistant colorectal carcinoma cell line); experiment: MTS cell viability assay, 2D culture, HCT116DoxR; details: read-out: IC50 (μM) HCT116DoxR, 48 h of exposure
Experimental: as §1
In this regard, cell viability was performed for each of the ligands on HCT116DoxR and fibroblasts.
Cell culture and maintenance
as §2, §3
human primary dermal fibroblasts.
as §4, §5, §6, §7, §8, §9, §10, §11, §12, §13, §14, §15, §16, §17, §18, §19, §20, §21, §22, §23, §24, §25, §26, §27

[15] = tested on: HCT116DoxR cells; experiment: Annexin V-FITC/PI apoptosis assay by flow cytometry; details: 48 h; for cells (%) early apoptosis / cells (%) late apoptosis / cells (%) necrosis / cells (%) viable / percentage of apoptosis (early + late): complexes at IC50, Dox 6 μM, cisplatin 5 μM; for fold increase in apoptotic cells, normalized to DMSO: complexes at IC50, cisplatin 5 μM
Experimental: To evaluate the cell death mechanism involved in the cytotoxic effect of the selected complexes, a double-staining with Annexin V-FITC and PI was performed. […] The use of Annexin V conjugated with the fluorophore FITC allows the quantification of this interaction and subsequent identification of cells in apoptosis by flow cytometry. Furthermore, PI is a fluorophore that can intercalate with DNA and that can only enter the cell when the membrane is either compromised or ruptured, making it possible to identify cells undergoing late apoptosis and necrosis. Therefore, the double staining makes it possible to distinguish between viable cells (FITC^–; IP^–), those undergoing initial apoptosis (FITC^+; IP^–), those undergoing late apoptosis (FITC^+; IP^+), and those undergoing necrosis (FITC^–; IP^+).[55],[58]
Evaluation of apoptosis induction in HCT116DoxR cell line by flow cytometry The induction of apoptosis in HCT116DoxR cell line was evaluated by flow cytometry, using the
Annexin V-FITC Apoptosis Detection Kit (Thermo Fisher Scientific, Waltham, MA, USA). Cells
were seeded in 6-well plates at a cell density of 1×10^5 cells/mL and incubated for 24 h. Afterwards,
culture medium was replaced by medium with different Cu(II) complexes at their IC50 concentrations.
After 48 h of incubation, cells were washed with PBS 1x, detached from each well with TrypLETM
Express and washed again with PBS 1x. Cells were then resuspended in 1x annexin-binding buffer and
incubated at rt for 15 min with Annexin V-FITC and 100 μg/mL PI.
All samples were analysed by an Attune® Acoustic Focusing Flow Cytometer (Thermo Fischer
Scientific, Waltham, MA, USA) and the results were processed with Attune® Cytometric software

| Structure (SMILES) | IC50 [3] | IC50 [4] | IC50 [5] | IC50 [6] | expression of BAX compared to the DMSO control [7] | expression of BCL-2 compared to the DMSO control [7] | concentration at which the interaction with pDNA reaches saturation [8] | pDNA cleavage mode [8] | effect of NaN3 (singlet oxygen scavenger) on pDNA cleavage by the complex [8] | apparent binding constant (Kapp) [9] | Stern–Volmer quenching constant KSV [9] | fibroblast migration (% of remission) [10] | formation of new blood vessels after 24 h [11] | formation of new blood vessels after 48 h [11] | maximum absorbances after 24 or 48 h compared to 0 h (reduction of solubility) [12] | cell cycle progression after 12 h ([13]; IC50, thymidine double block) | IC50 [14] | cells (%) early apoptosis [15] | cells (%) late apoptosis [15] | cells (%) necrosis [15] | other results |
| --- | --- | --- | --- | --- | --- | --- | --- | --- | --- | --- | --- | --- | --- | --- | --- | --- | --- | --- | --- | --- | --- |
| F[P-](F)(F)(F)(F)F.[Cl][Cu].c1ccc(-c2cc(-c3ccc4ccccc4n3)cc(-c3ccccn3)n2)nc1 [[Cu(4′-(2-quinolinyl)-terpy)Cl](PF6)] | – | – | – | – | – | – | – | – | – | – | – | – | – | – | – | – | – | – | – | – | toxicity in an in vivo model of CAM [1]: low toxicity |
| Cn1cccc1-c1cc(-c2ccccn2)nc(-c2ccccn2)c1.[Cl][Cu][Cl] | – | – | – | – | – | – | – | – | – | – | – | – | – | – | – | – | – | – | – | – | cytotoxic activity [2]: no cytotoxic activity |
| F[P-](F)(F)(F)(F)F.F[P-](F)(F)(F)(F)F.[Cl][Cu].[Cl][Cu].c1ccc(-c2cc(-c3ccnc4ccccc34)cc(-c3ccccn3)n2)nc1.c1ccc(-c2cc(-c3ccnc4ccccc34)cc(-c3ccccn3)n2)nc1 [complex 2, [Cu2Cl2(4′-(4-Quinolyl)-terpy)2](PF6)2] | 0.31 ± 0.01 µM | 0.54 ± 0.07 µM | 31.36 ± 0.02 µM | 15.2 ± 0.8 µM | decreases | increases | 25 μM | single strands | no effect | 1.23 × 10^6 M^–1 | 2450 M⁻¹ | lower compared to the positive control Dox | no pro- or antiangiogenic effect | antiangiogenic effect | slight decrease | delays cell cycle progression in the G2/M phase | 0.25 ± 0.02 µM | 47.3 ± 2.9% | 22.7 ± 4.6% | 0.3 ± 0.4% | cell cycle progression after 24 h ([13]; 24 h, complexes at IC50, cisplatin 5 μM): delay the cycle in the G2/M phase; cells (%) viable [15]: 29.7 ± 6.3%; percentage of apoptosis (early + late) [15]: 65 to 70%; fold increase in apoptotic cells, normalized to DMSO [15]: ~6.4 fold |
| F[P-](F)(F)(F)(F)F.F[P-](F)(F)(F)(F)F.[Cl][Cu].[Cl][Cu].c1ccc(-c2cc(-c3ccco3)cc(-c3ccccn3)n2)nc1.c1ccc(-c2cc(-c3ccco3)cc(-c3ccccn3)n2)nc1 [complex 5, [Cu2Cl2(4′-(2-Furanyl)-terpy)2](PF6)2] | 0.26 ± 0.03 µM | 0.79 ± 0.05 µM | 12.57 ± 0.02 µM | 14 ± 0.6 µM | decreases | increases | 50 μM | single and double strands | almost completely reversed | 1.84 × 10^6 M^–1 | 3640 M⁻¹ | lower compared to the positive control Dox | antiangiogenic potential | greater decrease in the % of blood vessels formed | slight decrease | delays cell cycle progression in the G2/M phase | 0.22 ± 0.01 µM | 47.2 ± 10.2% | 18.7 ± 5.4% | 0.2 ± 0.2% | cell cycle progression after 18 h ([13]; 18 h, IC50, thymidine double block): delay in cycle progression in the G0/G1 phase; cells (%) viable [15]: 33.9 ± 5.3%; percentage of apoptosis (early + late) [15]: 65 to 70%; fold increase in apoptotic cells, normalized to DMSO [15]: ~6.4 fold |
